Measured values: ChEMBL document CHEMBL5512654, “Discovery of novel Thymol-TPP antibiotics that eradicate MRSA persisters” (Eur J Med Chem, 2024)
In brackets after ≈: the same amount, converted by molar mass. Activity calls are given as the source filed them. No cut-off for these calls is given here.

How the values were obtained:
Staphylococcus aureus [1] = assay: Antibacterial activity against Staphylococcus aureus ATCC 43300 assessed as inhibition of bacterial growth measured after 18 hrs by microplate reader; format: functional; conditions: read-out: MIC100
Staphylococcus aureus [2] = assay: Antibacterial activity against methicillin-resistant Staphylococcus aureus USA 300 assessed as inhibition of bacterial growth measured after 18 hrs by microplate reader; format: functional; conditions: read-out: MIC100
Staphylococcus aureus [3] = assay: Antibacterial activity against methicillin-resistant Staphylococcus aureus USA 3390 assessed as inhibition of bacterial growth measured after 18 hrs by microplate reader; format: functional; conditions: read-out: MIC100
Escherichia coli [4] = assay: Antibacterial activity against Escherichia coli ATCC 25922 assessed as inhibition of bacterial growth measured after 18 hrs by microplate reader; format: functional; conditions: read-out: MIC100
Escherichia coli [5] = assay: Antibacterial activity against Escherichia coli 53328 assessed as inhibition of bacterial growth measured after 18 hrs by microplate reader; format: functional; conditions: read-out: MIC100
Pseudomonas aeruginosa [6] = assay: Antibacterial activity against Pseudomonas aeruginosa ATCC 27853 assessed as inhibition of bacterial growth measured after 18 hrs by microplate reader; format: functional; conditions: read-out: MIC100
Pseudomonas aeruginosa [7] = assay: Antibacterial activity against Pseudomonas aeruginosa 535 assessed as inhibition of bacterial growth measured after 18 hrs by microplate reader; format: functional; conditions: read-out: MIC100
Klebsiella pneumoniae [8] = assay: Antibacterial activity against Klebsiella pneumonia ATCC 700603 assessed as inhibition of bacterial growth measured after 18 hrs by microplate reader; format: functional; conditions: read-out: MIC100
Klebsiella pneumoniae [9] = assay: Antibacterial activity against Klebsiella pneumonia 3026 assessed as inhibition of bacterial growth measured after 18 hrs by microplate reader; format: functional; conditions: read-out: MIC100
Acinetobacter baumannii [10] = assay: Antibacterial activity against Acinetobacter baumannii ATCC 19606 assessed as inhibition of bacterial growth measured after 18 hrs by microplate reader; format: functional; conditions: read-out: MIC100
Acinetobacter baumannii [11] = assay: Antibacterial activity against Acinetobacter baumannii ATCC 1318 assessed as inhibition of bacterial growth measured after 18 hrs by microplate reader; format: functional; conditions: read-out: MIC100
[12] = Cytotoxicity against human L02 cells incubated for 72 hrs by MTT dye reduction assay; format: toxicity, cell-based
Staphylococcus aureus [13] = assay: In vivo antibacterial efficacy in bioluminescent Staphylococcus aureus Xen29 infected in mouse topical infection model assessed as reduction in number of colonies at 8 mg/kg, sc treated 16, 24, 36, 48, […] hrs post-infection measured after 84 hrs relative to control; format: functional

Q: For Cc1cc(O)c(C(C)C)cc1-c1ccc(Cl)cc1, which MIC (Staphylococcus aureus [1]) is on record?
A: Its MIC is 8 µg/mL (≈ 30.7 µM).

Q: And the MIC (Staphylococcus aureus [2])?
A: The MIC was 4 µg/mL (≈ 15.3 µM).

Q: What about the MIC (Staphylococcus aureus [3]) of the same compound?
A: Its MIC is 8 µg/mL (≈ 30.7 µM).

Q: Which MIC (Staphylococcus aureus [1]) does the source give for Cc1cc(O)c(C(C)C)cc1Br here?
A: The MIC was 64 µg/mL (≈ 279 µM).

Q: And the MIC (Staphylococcus aureus [2])?
A: Its MIC is 64 µg/mL (≈ 279 µM).

Q: What about the MIC (Staphylococcus aureus [3]) of the same compound?
A: Its MIC is 32 µg/mL (≈ 140 µM).

Q: With Cc1cc(OC(=O)CCCCCCCC[P+](c2ccccc2)(c2ccccc2)c2ccccc2)c(C(C)C)cc1-c1ccccc1.[Br-] as the compound, how does the MIC (Escherichia coli [4]) read?
A: The MIC was 4 µg/mL.

Q: And the MIC (Escherichia coli [5])?
A: Its MIC is 16 µg/mL.

Q: What about the MIC (Pseudomonas aeruginosa [6]) of the same compound?
A: The MIC was 64 µg/mL.

Q: And the MIC (Pseudomonas aeruginosa [7])?
A: The MIC was 32 µg/mL.

Q: What about the MIC (Klebsiella pneumoniae [8]) of the same compound?
A: The MIC was 64 µg/mL.

Q: What about the MIC (Klebsiella pneumoniae [9]) of the same compound?
A: The MIC was 64 µg/mL.

Q: What about the MIC (Acinetobacter baumannii [10]) of the same compound?
A: The MIC was 16 µg/mL.

Q: What about the MIC (Acinetobacter baumannii [11]) of the same compound?
A: Its MIC is 8 µg/mL.

Q: And the IC50 at 72 h [12]?
A: Its IC50 at 72 h is 13.2 µg/mL.

Q: With COc1ccc(-c2cc(C(C)C)c(O)cc2C)cc1 as the compound, how does the MIC (Staphylococcus aureus [1]) read?
A: Its MIC is 16 µg/mL (≈ 62.4 µM).

Q: And the MIC (Staphylococcus aureus [2])?
A: Its MIC is 32 µg/mL (≈ 125 µM).

Q: What about the MIC (Staphylococcus aureus [3]) of the same compound?
A: Its MIC is 16 µg/mL (≈ 62.4 µM).

Q: With Cc1cc(O)c(C(C)C)cc1-c1ccncc1 as the compound, how does the MIC (Staphylococcus aureus [1]) read?
A: The MIC was 128 µg/mL (≈ 563 µM).

Q: And the MIC (Staphylococcus aureus [2])?
A: Its MIC is 128 µg/mL (≈ 563 µM).

Q: What about the MIC (Staphylococcus aureus [3]) of the same compound?
A: The MIC was 128 µg/mL (≈ 563 µM).

Q: For CN[C@H](CC(C)C)C(=O)N[C@H]1C(=O)N[C@@H](CC(N)=O)C(=O)N[C@H]2C(=O)N[C@H]3C(=O)N[C@H](C(=O)N[C@H](C(=O)O)c4cc(O)cc(O)c4-c4cc3ccc4O)[C@H](O)c3ccc(c(Cl)c3)Oc3cc2cc(c3O[C@@H]2O[C@H](CO)[C@@H](O)[C@H](O)[C@H]2O[C@H]2C[C@](C)(N)[C@H](O)[C@H](C)O2)Oc2ccc(cc2Cl)[C@H]1O, which AC200 (Staphylococcus aureus [13]) is on record?
A: The AC200 was “Active”.

Q: With Cc1cc(O)c(C(C)C)cc1-c1ccccc1C#N as the compound, how does the MIC (Staphylococcus aureus [1]) read?
A: Its MIC is 16 µg/mL (≈ 63.7 µM).

Q: And the MIC (Staphylococcus aureus [2])?
A: Its MIC is 8 µg/mL (≈ 31.8 µM).

Q: What about the MIC (Staphylococcus aureus [3]) of the same compound?
A: Its MIC is 8 µg/mL (≈ 31.8 µM).

Q: Which MIC (Staphylococcus aureus [1]) does the source give for Cc1cc(O)c(C(C)C)cc1-c1ccc(C(F)(F)F)cc1 here?
A: Its MIC is 4 µg/mL (≈ 13.6 µM).

Q: And the MIC (Staphylococcus aureus [2])?
A: Its MIC is 4 µg/mL (≈ 13.6 µM).

Q: What about the MIC (Staphylococcus aureus [3]) of the same compound?
A: Its MIC is 8 µg/mL (≈ 27.2 µM).

Q: Which MIC (Staphylococcus aureus [1]) does the source give for Cc1cc(O)c(C(C)C)cc1-c1ccc(C#N)cc1 here?
A: Its MIC is 16 µg/mL (≈ 63.7 µM).

Q: And the MIC (Staphylococcus aureus [2])?
A: The MIC was 16 µg/mL (≈ 63.7 µM).

Q: And the MIC (Staphylococcus aureus [3])?
A: The MIC was 32 µg/mL (≈ 127 µM).

Q: Which MIC (Escherichia coli [4]) does the source give for Cc1cc(OC(=O)CCCCCC[P+](c2ccccc2)(c2ccccc2)c2ccccc2)c(C(C)C)cc1-c1ccccc1.[Br-] here?
A: The MIC was 8 µg/mL.

Q: What about the MIC (Escherichia coli [5]) of the same compound?
A: Its MIC is 8 µg/mL.

Q: What about the MIC (Pseudomonas aeruginosa [6]) of the same compound?
A: Its MIC is greater than 64 µg/mL.

Q: And the MIC (Pseudomonas aeruginosa [7])?
A: The MIC was greater than 64 µg/mL.

Q: And the MIC (Klebsiella pneumoniae [8])?
A: The MIC was 8 µg/mL.

Q: And the MIC (Klebsiella pneumoniae [9])?
A: Its MIC is 8 µg/mL.

Q: And the MIC (Acinetobacter baumannii [10])?
A: Its MIC is 8 µg/mL.

Q: What about the MIC (Acinetobacter baumannii [11]) of the same compound?
A: The MIC was 8 µg/mL.

Q: What about the IC50 at 72 h [12] of the same compound?
A: Its IC50 at 72 h is 18.8 µg/mL.

Q: For Cc1ccc(C(C)C)c(O)c1 [THYMOL], which MIC (Staphylococcus aureus [1]) is on record?
A: The MIC was 128 µg/mL (≈ 852 µM).

Q: And the MIC (Staphylococcus aureus [2])?
A: The MIC was 128 µg/mL (≈ 852 µM).

Q: What about the MIC (Staphylococcus aureus [3]) of the same compound?
A: Its MIC is 256 µg/mL (≈ 1700 µM).

Q: With Cc1cc(O)c(C(C)C)cc1-c1ccccc1F as the compound, how does the MIC (Staphylococcus aureus [1]) read?
A: The MIC was 8 µg/mL (≈ 32.7 µM).

Q: And the MIC (Staphylococcus aureus [2])?
A: Its MIC is 16 µg/mL (≈ 65.5 µM).

Q: And the MIC (Staphylococcus aureus [3])?
A: The MIC was 16 µg/mL (≈ 65.5 µM).

Q: For Cc1cc(O)c(C(C)C)cc1-c1cccc(C(=O)O)c1, which MIC (Staphylococcus aureus [1]) is on record?
A: The MIC was 8 µg/mL (≈ 29.6 µM).

Q: And the MIC (Staphylococcus aureus [2])?
A: The MIC was 8 µg/mL (≈ 29.6 µM).

Q: What about the MIC (Staphylococcus aureus [3]) of the same compound?
A: The MIC was 16 µg/mL (≈ 59.2 µM).

Q: With Cc1cc(O)c(C(C)C)cc1Cl [CHLOROTHYMOL] as the compound, how does the MIC (Staphylococcus aureus [1]) read?
A: Its MIC is 64 µg/mL (≈ 347 µM).

Q: And the MIC (Staphylococcus aureus [2])?
A: Its MIC is 64 µg/mL (≈ 347 µM).

Q: What about the MIC (Staphylococcus aureus [3]) of the same compound?
A: Its MIC is 64 µg/mL (≈ 347 µM).

Q: For Cc1cc(OC(=O)CCCCCCCCC[P+](c2ccccc2)(c2ccccc2)c2ccccc2)c(C(C)C)cc1-c1ccccc1.[Br-], which MIC (Escherichia coli [4]) is on record?
A: Its MIC is 4 µg/mL.

Q: And the MIC (Escherichia coli [5])?
A: Its MIC is 64 µg/mL.

Q: What about the MIC (Pseudomonas aeruginosa [6]) of the same compound?
A: Its MIC is 32 µg/mL.

Q: What about the MIC (Pseudomonas aeruginosa [7]) of the same compound?
A: The MIC was 32 µg/mL.

Q: And the MIC (Klebsiella pneumoniae [8])?
A: The MIC was 32 µg/mL.

Q: And the MIC (Klebsiella pneumoniae [9])?
A: Its MIC is greater than 64 µg/mL.

Q: And the MIC (Acinetobacter baumannii [10])?
A: Its MIC is 32 µg/mL.

Q: What about the MIC (Acinetobacter baumannii [11]) of the same compound?
A: Its MIC is 16 µg/mL.

Q: And the IC50 at 72 h [12]?
A: Its IC50 at 72 h is 8.67 µg/mL.

Q: For Cc1cc(OC(=O)CCCCCCCCCC[P+](c2ccccc2)(c2ccccc2)c2ccccc2)c(C(C)C)cc1-c1ccccc1.[Br-], which MIC (Escherichia coli [4]) is on record?
A: The MIC was greater than 64 µg/mL.

Q: And the MIC (Escherichia coli [5])?
A: Its MIC is 32 µg/mL.

Q: What about the MIC (Pseudomonas aeruginosa [6]) of the same compound?
A: Its MIC is 64 µg/mL.

Q: What about the MIC (Pseudomonas aeruginosa [7]) of the same compound?
A: Its MIC is greater than 64 µg/mL.

Q: And the MIC (Klebsiella pneumoniae [8])?
A: The MIC was greater than 64 µg/mL.

Q: And the MIC (Klebsiella pneumoniae [9])?
A: The MIC was greater than 64 µg/mL.

Q: And the MIC (Acinetobacter baumannii [10])?
A: The MIC was greater than 64 µg/mL.

Q: And the MIC (Acinetobacter baumannii [11])?
A: The MIC was greater than 64 µg/mL.

Q: And the IC50 at 72 h [12]?
A: Its IC50 at 72 h is 3.13 µg/mL.

Q: Which MIC (Staphylococcus aureus [1]) does the source give for Cc1cc(O)c(C(C)C)cc1-c1ccccc1C(F)(F)F here?
A: The MIC was 8 µg/mL (≈ 27.2 µM).

Q: What about the MIC (Staphylococcus aureus [2]) of the same compound?
A: The MIC was 8 µg/mL (≈ 27.2 µM).

Q: What about the MIC (Staphylococcus aureus [3]) of the same compound?
A: Its MIC is 16 µg/mL (≈ 54.4 µM).

Q: Which MIC (Escherichia coli [4]) does the source give for Cc1cc(OC(=O)CC[P+](c2ccccc2)(c2ccccc2)c2ccccc2)c(C(C)C)cc1-c1ccccc1.[Br-] here?
A: Its MIC is 4 µg/mL.

Q: And the MIC (Escherichia coli [5])?
A: Its MIC is greater than 64 µg/mL.

Q: What about the MIC (Pseudomonas aeruginosa [6]) of the same compound?
A: The MIC was greater than 64 µg/mL.

Q: What about the MIC (Pseudomonas aeruginosa [7]) of the same compound?
A: Its MIC is greater than 64 µg/mL.

Q: And the MIC (Klebsiella pneumoniae [8])?
A: Its MIC is 32 µg/mL.

Q: And the MIC (Klebsiella pneumoniae [9])?
A: The MIC was greater than 64 µg/mL.

Q: What about the MIC (Acinetobacter baumannii [10]) of the same compound?
A: Its MIC is 32 µg/mL.

Q: What about the MIC (Acinetobacter baumannii [11]) of the same compound?
A: Its MIC is 16 µg/mL.

Q: What about the IC50 at 72 h [12] of the same compound?
A: Its IC50 at 72 h is 7.96 µg/mL.

Q: Which MIC (Staphylococcus aureus [1]) does the source give for Cc1cc(O)c(C(C)C)cc1-c1cccc(F)c1 here?
A: Its MIC is 16 µg/mL (≈ 65.5 µM).

Q: What about the MIC (Staphylococcus aureus [2]) of the same compound?
A: Its MIC is 16 µg/mL (≈ 65.5 µM).

Q: What about the MIC (Staphylococcus aureus [3]) of the same compound?
A: Its MIC is 16 µg/mL (≈ 65.5 µM).
